In patent US20130040935A1, “CYCLIC KETO-ENOLS FOR THERAPY” (BAYER INTELLECTUAL PROPERTY GMBH, priority 2010, published 2013) one finds IC50 data, which are given here for 9 compounds.

The target in assay [1] is acetyl-CoA carboxylase 2 (ACC2) (Homo sapiens, UniProt O00763). The assay can be described thus: Human ACC2 enzyme assay, Assay A2 (HTRF ADP immunoassay).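 Also: ADP generated by ACC2 quantified via competitive time-resolved FRET between europium cryptate anti-ADP antibody and d2-tagged ADP, enzyme kept in linear range near 0.6 ng/µl.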
Chain of acetyl-CoA carboxylase 2 (ACC2) (O00763 39-2458 limits assumed): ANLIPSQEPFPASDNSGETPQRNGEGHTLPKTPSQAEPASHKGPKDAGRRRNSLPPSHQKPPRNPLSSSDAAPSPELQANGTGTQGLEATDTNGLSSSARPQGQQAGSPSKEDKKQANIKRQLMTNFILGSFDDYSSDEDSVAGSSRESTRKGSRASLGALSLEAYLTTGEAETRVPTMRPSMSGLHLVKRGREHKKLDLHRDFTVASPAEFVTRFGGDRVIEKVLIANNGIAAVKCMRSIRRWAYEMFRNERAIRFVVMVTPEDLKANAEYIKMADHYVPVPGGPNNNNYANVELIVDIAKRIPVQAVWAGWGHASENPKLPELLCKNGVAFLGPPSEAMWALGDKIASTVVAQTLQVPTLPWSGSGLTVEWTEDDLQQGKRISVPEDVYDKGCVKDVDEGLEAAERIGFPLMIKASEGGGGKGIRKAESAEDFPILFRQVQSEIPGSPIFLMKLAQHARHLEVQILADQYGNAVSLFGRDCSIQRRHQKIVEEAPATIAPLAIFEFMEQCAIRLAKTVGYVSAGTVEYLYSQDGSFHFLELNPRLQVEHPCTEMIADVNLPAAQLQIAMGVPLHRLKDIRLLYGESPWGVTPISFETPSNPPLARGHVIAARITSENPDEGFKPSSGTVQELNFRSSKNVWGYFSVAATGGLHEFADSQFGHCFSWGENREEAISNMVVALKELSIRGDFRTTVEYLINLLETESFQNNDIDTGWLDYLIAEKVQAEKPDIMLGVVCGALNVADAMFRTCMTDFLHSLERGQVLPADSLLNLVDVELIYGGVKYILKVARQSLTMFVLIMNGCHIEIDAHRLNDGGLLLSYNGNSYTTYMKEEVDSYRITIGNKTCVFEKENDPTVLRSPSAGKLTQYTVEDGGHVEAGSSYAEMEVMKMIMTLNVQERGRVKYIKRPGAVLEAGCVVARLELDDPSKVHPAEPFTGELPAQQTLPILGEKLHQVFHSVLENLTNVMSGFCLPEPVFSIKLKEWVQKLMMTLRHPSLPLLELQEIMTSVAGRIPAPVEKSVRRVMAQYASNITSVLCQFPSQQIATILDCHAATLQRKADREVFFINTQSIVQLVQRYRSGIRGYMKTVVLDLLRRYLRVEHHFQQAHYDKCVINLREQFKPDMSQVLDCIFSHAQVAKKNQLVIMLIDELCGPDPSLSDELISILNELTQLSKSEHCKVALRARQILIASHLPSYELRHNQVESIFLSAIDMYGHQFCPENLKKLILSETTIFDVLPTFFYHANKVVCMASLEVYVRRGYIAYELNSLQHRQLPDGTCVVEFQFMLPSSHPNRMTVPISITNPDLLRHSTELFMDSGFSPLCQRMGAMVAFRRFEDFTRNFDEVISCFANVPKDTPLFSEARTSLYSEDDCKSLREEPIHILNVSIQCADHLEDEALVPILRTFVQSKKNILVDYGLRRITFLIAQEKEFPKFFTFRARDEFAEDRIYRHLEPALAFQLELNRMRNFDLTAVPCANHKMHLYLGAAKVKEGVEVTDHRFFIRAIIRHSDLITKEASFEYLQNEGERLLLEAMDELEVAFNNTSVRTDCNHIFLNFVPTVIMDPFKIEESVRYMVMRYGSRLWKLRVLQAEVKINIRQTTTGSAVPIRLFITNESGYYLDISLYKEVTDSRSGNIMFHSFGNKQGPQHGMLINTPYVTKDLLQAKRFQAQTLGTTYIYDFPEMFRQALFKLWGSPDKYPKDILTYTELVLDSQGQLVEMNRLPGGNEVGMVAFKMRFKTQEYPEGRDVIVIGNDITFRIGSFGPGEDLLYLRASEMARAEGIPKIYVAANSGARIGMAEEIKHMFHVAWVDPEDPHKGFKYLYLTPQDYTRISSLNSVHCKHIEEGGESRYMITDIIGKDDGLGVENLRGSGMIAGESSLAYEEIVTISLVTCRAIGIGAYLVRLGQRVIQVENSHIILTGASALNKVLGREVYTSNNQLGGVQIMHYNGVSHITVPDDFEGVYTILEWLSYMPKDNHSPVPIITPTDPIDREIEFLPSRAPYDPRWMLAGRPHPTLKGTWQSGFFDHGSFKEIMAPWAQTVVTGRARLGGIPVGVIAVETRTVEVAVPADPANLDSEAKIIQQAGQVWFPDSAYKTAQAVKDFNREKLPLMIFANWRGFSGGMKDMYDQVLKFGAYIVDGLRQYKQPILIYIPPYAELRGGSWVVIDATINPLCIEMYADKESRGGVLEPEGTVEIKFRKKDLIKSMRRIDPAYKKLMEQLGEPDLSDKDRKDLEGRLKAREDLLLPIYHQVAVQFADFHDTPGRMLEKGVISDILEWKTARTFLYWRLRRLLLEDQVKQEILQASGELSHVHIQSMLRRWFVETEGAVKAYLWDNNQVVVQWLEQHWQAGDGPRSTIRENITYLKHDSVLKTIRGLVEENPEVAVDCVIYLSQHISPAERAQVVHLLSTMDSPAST
Procedure: The inhibitory activity of the substances of this invention with regard to acetyl-CoA carboxylase 2 (ACC2) was measured using the ACC2 assay described in the paragraphs below. The basic principle of the assay is the measurement of adenosine diphosphate (ADP), which is formed as a by-product, by means of an HTRF®-based competitive immunoassay (HTRF=Homogeneous Time Resolved Fluorescence).
The amount of complex of d2-labelled ADP and europium cryptate-labelled anti-ADP antibody was then determined by measuring the resonance energy transfer of europium cryptate to d2.
Assay [2] concerns the target human ACC2 (acetyl-coenzyme A carboxylase 2) (Homo sapiens, UniProt O00763). The assay is described as follows: Human ACC2 enzyme assay, Assay B2 (ADP-Glo).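 Also: human ACC2 activity read as ADP product, detected by luciferase glow luminescence after residual ATP removal, enzyme near 2 ng/µl in linear range, detection steps at 22 °C.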
For the next assay, the system named is MCF7. The assay is described as follows: Cell proliferation assay (CellTiter-Glo, 96 h), MCF7. Format: cell-based. Conditions: Homo sapiens, MCF7; Table 7; 96-hour incubation. A digest of the protocol: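 Seeding: 2000-5000 cells/well; overnight, 37° C. Separate t=0 plate read. Compound diluted in growth medium, 96 h, 37° C. Readout: CellTiter-Glo luminescence, t=0 subtracted; % growth inhibition vs control.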
Procedure: The hACC2-inhibitory action of the substances of the present invention was measured in the hACC2 assay described in the paragraphs below.
Essentially, the enzyme activity is measured by quantifying the adenosine diphosphate (ADP) formed as a byproduct of the enzyme reactions using the ADP-Glo™ detection system from Promega. In this test, initially the adenosine triphosphate (ATP) not consumed in the enzyme reaction is converted quantitatively with an adenylate cyclase (“ADP-GLO reagent”) into cAMP, the adenylate cyclase is then stopped and (“kinase detection reagent”) the ADP formed is subsequently converted into ATP, which is converted in a luciferase-based reaction into a glow luminescence signal.
The concentration of the hACC2 was adapted to the respective activity of the enzyme and adjusted such that the assay operated in the linear range. Typical concentrations were in the range of 2 ng/μl. […] The amount of light emitted was taken as a measure for the amount of ADP formed and thus for the enzyme activity of the hACC2.

In assay [3] the target is T1, human ACC1 (acetyl-coenzyme A carboxylase alpha transcript variant 1) (Homo sapiens, UniProt Q13085).
T1 construct: FLAG (C); made in house; host or cells: baculovirus-infected insect cells (Hi5)
The assay can be described thus: Human ACC1 enzyme assay, Assay B1 (ADP-Glo). It is filed as biochemical.

Another assay concerns the target recombinant human ACC1 (Homo sapiens, UniProt Q13085). The assay can be described thus: Human ACC1 enzyme assay, Assay A1 (HTRF ADP immunoassay).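 Also: ADP generated by the enzyme quantified via competitive time-resolved FRET, read as europium cryptate to d2 energy transfer after 1 h at 22 °C with labelled ADP tracer and anti-ADP antibody.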
Setting [4] is: Assay B1, read-out: ACC 1 (=B1) IC50.

Read-outs that look alike come from different tables or passages of the source.

Chain of human ACC2 (acetyl-coenzyme A carboxylase 2) (O00763 27-2458 limits assumed): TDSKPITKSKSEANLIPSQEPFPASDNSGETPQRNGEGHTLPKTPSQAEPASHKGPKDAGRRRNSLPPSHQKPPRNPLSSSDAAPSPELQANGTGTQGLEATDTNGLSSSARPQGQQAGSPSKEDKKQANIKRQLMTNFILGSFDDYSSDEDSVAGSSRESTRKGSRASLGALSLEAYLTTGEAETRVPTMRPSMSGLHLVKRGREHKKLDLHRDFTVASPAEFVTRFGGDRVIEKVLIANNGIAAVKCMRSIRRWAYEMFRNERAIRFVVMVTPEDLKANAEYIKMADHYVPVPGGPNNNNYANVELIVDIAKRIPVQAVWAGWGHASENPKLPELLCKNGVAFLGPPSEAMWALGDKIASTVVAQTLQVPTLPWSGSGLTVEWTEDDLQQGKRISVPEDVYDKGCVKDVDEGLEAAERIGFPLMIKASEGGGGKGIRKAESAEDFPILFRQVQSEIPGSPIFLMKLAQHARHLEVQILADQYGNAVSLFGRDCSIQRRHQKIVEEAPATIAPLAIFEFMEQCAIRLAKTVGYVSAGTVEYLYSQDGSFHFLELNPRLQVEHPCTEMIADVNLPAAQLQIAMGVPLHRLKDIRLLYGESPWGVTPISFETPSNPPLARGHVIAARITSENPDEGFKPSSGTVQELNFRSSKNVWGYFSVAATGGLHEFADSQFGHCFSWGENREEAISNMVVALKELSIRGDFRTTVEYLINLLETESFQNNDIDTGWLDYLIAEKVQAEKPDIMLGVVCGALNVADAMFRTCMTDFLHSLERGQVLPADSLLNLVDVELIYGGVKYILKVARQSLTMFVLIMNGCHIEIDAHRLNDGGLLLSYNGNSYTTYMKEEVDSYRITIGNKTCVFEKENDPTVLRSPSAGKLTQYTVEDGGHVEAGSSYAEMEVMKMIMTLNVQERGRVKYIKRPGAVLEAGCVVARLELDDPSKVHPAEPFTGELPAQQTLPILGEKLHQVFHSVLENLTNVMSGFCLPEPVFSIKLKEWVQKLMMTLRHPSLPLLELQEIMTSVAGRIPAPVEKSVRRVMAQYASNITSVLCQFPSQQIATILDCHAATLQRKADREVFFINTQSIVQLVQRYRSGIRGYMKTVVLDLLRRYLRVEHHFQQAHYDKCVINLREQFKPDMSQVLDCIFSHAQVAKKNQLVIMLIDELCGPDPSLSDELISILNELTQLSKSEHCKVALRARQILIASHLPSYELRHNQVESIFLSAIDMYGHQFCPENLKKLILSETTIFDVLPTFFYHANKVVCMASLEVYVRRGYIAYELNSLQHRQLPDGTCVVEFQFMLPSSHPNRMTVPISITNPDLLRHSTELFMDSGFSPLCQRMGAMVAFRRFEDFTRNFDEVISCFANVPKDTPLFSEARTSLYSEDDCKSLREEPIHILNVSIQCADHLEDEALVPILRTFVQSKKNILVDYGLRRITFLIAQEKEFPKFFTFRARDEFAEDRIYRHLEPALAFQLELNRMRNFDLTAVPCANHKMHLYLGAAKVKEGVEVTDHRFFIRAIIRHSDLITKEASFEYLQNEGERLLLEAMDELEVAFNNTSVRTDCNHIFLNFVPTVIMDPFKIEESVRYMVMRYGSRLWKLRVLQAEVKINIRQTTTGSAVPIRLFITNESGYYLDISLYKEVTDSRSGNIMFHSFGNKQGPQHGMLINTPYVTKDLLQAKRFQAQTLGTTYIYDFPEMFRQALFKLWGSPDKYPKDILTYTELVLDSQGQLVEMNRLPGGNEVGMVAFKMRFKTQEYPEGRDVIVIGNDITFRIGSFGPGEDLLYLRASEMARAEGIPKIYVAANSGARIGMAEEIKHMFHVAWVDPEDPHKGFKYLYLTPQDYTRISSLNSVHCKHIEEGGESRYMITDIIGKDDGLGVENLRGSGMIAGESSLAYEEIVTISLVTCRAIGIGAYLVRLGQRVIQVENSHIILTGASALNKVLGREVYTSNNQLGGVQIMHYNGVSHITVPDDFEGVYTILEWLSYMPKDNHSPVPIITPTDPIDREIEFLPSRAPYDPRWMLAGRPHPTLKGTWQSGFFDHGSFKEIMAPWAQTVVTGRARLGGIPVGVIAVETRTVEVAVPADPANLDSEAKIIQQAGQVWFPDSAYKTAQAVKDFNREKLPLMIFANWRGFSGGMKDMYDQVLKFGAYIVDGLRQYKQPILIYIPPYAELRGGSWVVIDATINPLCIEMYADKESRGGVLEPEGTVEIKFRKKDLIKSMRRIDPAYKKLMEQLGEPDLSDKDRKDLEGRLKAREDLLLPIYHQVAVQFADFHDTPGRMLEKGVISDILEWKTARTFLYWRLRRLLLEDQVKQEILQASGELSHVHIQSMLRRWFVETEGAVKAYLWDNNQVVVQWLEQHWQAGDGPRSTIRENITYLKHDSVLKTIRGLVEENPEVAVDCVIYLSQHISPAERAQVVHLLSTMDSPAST

In the case of `CO[C@H]1CC[C@]2(CC1)NC(=O)C(c1cc(-c3ccc(Cl)c(F)c3)cc(F)c1C)=C2O` [1-105, (5s,8s)-3-(4′-Chloro-3′,5-difluoro-4-methylbiphenyl-3-yl)-4-hydroxy-8-methoxy-1-azaspiro[4.5]dec-3-en-2-one], the IC50 in assay [1] was found to be 5.56 µM; in assay [2], 8.94 µM; in the assay on MCF7, 106 nM; in assay [3], 165 nM; at recombinant human ACC1, 360 nM.
With `Cc1c(F)cc(-c2ccc(Cl)c(F)c2)cc1C1=C(O)[C@]2(CC[C@H](C(F)(F)F)CC2)NC1=O` [1-102, (5s,8s)-3-(4′-Chloro-3′,5-difluoro-4-methylbiphenyl-3-yl)-4-hydroxy-8-(trifluoromethyl)-1-azaspiro[4.5]dec-3-en-2-one], the half-maximal inhibitory concentration (IC50) is 2.95 µM in assay [1]; 3.82 µM in assay [2]; 79 nM in the assay on MCF7; 243 nM in assay [3]; 214 nM on recombinant human ACC1.
The matching figures for `Cc1ccc(-c2ccc(F)c(F)c2)c(C)c1C1=C(O)[C@]2(CC[C@H](C(F)(F)F)CC2)NC1=O` [1-101, (5s,8s)-3-(3′,4′-Difluoro-2,4-dimethylbiphenyl-3-yl)-4-hydroxy-8-(trifluoromethyl)-1-azaspiro[4.5]dec-3-en-2-one]: 6.07 µM, 10.5 µM, 272 nM, 650 nM and 460 nM.
On the same counts, the results for `CO[C@H]1CC[C@]2(CC1)NC(=O)C(c1cc(-c3ccc(Cl)cc3)cc(F)c1C)=C2O` [1-106, (5s,8s)-3-(4′-Chloro 5 fluoro 4-methylbiphenyl-3-yl)-4-hydroxy-8-methoxy-1-azaspiro[4.5]dec-3-en-2-one] are 4.36 µM, 5.85 µM, 155 nM, 207 nM and 439 nM.
Turning to `Cc1ccc(-c2ccc(Cl)c(F)c2)cc1C1=C(O)[C@]2(CC[C@H](C)CC2)NC1=O` [1-110, (5s,8s)-3-(4′-Chloro-3′-fluoro-4-methylbiphenyl-3-yl)-4-hydroxy-8-methyl-1-azaspiro[4.5]dec-3-en-2-one], the IC50 is 0.64 µM in assay [1]; 0.488 µM in assay [2]; 45 nM in the assay with MCF7; 80 nM in assay [3] (setting [4]); 194 nM at recombinant human ACC1.
In the case of `CO[C@H]1CC[C@]2(CC1)NC(=O)C(c1cc(-c3ccc(Cl)c(F)c3)c(Cl)cc1C)=C2O` [1-108, (5s,8s)-3-(4′,6-Dichloro-3′-fluoro-4-methylbiphenyl-3-yl)-4-hydroxy-8-methoxy-1-azaspiro[4.5]dec-3-en-2-one], the IC50 in assay [1] worked out at 0.346 µM; in assay [2], 0.753 µM; in the assay with MCF7 it was 76 nM; in assay [3] it was 204 nM; at recombinant human ACC1, 460 nM.
On the same counts, the results for `CO[C@H]1CC[C@]2(CC1)NC(=O)C(c1cc(-c3ccc(Cl)cc3)c(Cl)cc1C)=C2O` [1-109, (5s,8s)-3-(4′,6-Dichloro-4-methylbiphenyl-3-yl)-4-hydroxy-8-methoxy-1-azaspiro[4.5]dec-3-en-2-one] are 0.103 µM, 0.394 µM, 37 nM, 293 nM and 800 nM.
The matching figures for `CO[C@H]1CC[C@]2(CC1)NC(=O)C(c1cc(-c3ccc(F)c(F)c3)ccc1C)=C2O` [1-136, (5s,8s)-3-(3′,4′-Difluoro-4-methylbiphenyl-3-yl)-4-hydroxy-8-methoxy-1-azaspiro[4.5]dec-3-en-2-one]: 6.49 µM, 12.5 µM, 156 nM, 233 nM and 239 nM.
For `Cc1ccc(-c2ccc(F)c(F)c2)cc1C1=C(O)[C@]2(CC[C@@H](C(F)(F)F)CC2)NC1=O` [1-129, (5r,8r)-3-(3′,4′-Difluoro-4-methylbiphenyl-3-yl)-4-hydroxy-8-(trifluoromethyl)-1-azaspiro[4.5]dec-3-en-2-one], the concentration for half-maximal inhibition (IC50) in assay [1] is 9.61 µM; in assay [2], 10.6 µM; in the assay on MCF7 it was 172 nM; in assay [3] (setting [4]), 267 nM; at recombinant human ACC1, 349 nM.
